Measurements reported in US20060004428A1, “Pyrrolo (3,4-c) carbazole and pyrido (2,3-b) pyrrolo (3,4-e) indole derivatives, preparation method and pharmaceutical compositions containing same” (priority 2002, published 2006).

Columns and labels:
L1210 murine leukaemia = experiment: In vitro cytotoxicity, Microculture Tetrazolium Assay, L1210; assay type: cell-based; conditions: Mus musculus, exposure 4 doubling periods, or 48 hours, read-out: IC50, the concentration of cytotoxic agent which inhibits the proliferation of the treated cells by 50%
Method: (§1) Four cell lines were used: • L1210 murine leukaemia • A549 human non-small-cell lung carcinoma • HT29 human colon carcinoma • DU145 prostate carcinoma
(§2) L1210 murine leukaemia was used in vitro. The cells are cultured in RPMI 1640 complete culture medium containing 10% foetal calf serum, 2 mM glutamine, 50 units/ml of penicillin, 50 μg/ml of streptomycin and 10 mM Hepes, pH: 7.4. The cells are distributed on microplates and are exposed to the cytotoxic compounds for 4 doubling periods, or 48 hours. The number of viable cells is then quantified by a calorimetric assay, the Microculture Tetrazolium Assay (J. Carmichael et al., Cancer Res.; 47, 936-942 (1987)). The results are expressed as the IC50, the concentration of cytotoxic agent which inhibits the proliferation of the treated cells by 50%.

DU145 prostate carcinoma = experiment: In vitro cytotoxicity, Microculture Tetrazolium Assay, DU145; assay type: cell-based; conditions: Homo sapiens, DU-145, read-out: IC50, the concentration of cytotoxic agent which inhibits the proliferation of the treated cells by 50%
Method: as §1, §2

[1] = test system: A549 human non-small-cell lung carcinoma; experiment: In vitro cytotoxicity, Microculture Tetrazolium Assay, A549; assay type: cell-based; conditions: read-out: IC50, the concentration of cytotoxic agent which inhibits the proliferation of the treated cells by 50%
Method: as §1, §2

[2] = test system: HT29 human colon carcinoma; experiment: In vitro cytotoxicity, Microculture Tetrazolium Assay, HT29; assay type: cell-based; conditions: HT-29, read-out: IC50, the concentration of cytotoxic agent which inhibits the proliferation of the treated cells by 50%
Method: as §1, §2

SMILES | melting point [°C] | also measured
O=C1NC(=O)c2c1c1c3cc(OCc4ccccc4)ccc3[nH]c1c1cccn21 [Example 3, 11-(Benzyloxy)pyrrolo[3′,4′:5,6]indolizino[8,7-b]indole-1,3(2H,8H)-dione] | 275 | 
CN1C(=O)c2c(n3cccc3c3[nH]c4ccccc4c23)C1=O [Example 2, 2-Methylpyrrolo[3′,4′:5,6]indolizino[8,7-b]indole-1,3(2H,8H)dione] | 226 to 228 | 
CC(=O)OC[C@H]1O[C@@H](n2c3ncccc3c3c4c(n5cncc5c32)C(=O)N(C)C4=O)[C@H](OC(C)=O)[C@@H](OC(C)=O)[C@@H]1OC(C)=O [Example 21, 2-Methyl-8-(2,3,4,6-tetra-O-acetyl-β-D-glucopyranosyl)-imidazo-[1,5-a]pyrido[3′,2′:4,5]pyrrolo[2,3-c]pyrrolo[3,4-e]pyridine-1,3(2H,8H)-dione] | 204 | 
CN1C(=O)c2c(n3cccc3c3[nH]c4ccc(Br)cc4c23)C1=O [Example 8, 11-Bromo-2-methylpyrrolo[3′,4′:5,6]indolizino[8,7-b]indole-1,3(2H,8H)-dione] | > 300 | 
CN1C(=O)c2c(n3cncc3c3[nH]c4ncccc4c23)C1=O [Example 18, 2-Methylimidazo[1,5-a]pyrido[3′,2′:4,5]pyrrolo[2,3-c]pyrrolo[3,4-e]-Pyridine-1,3(2H,8H)-dione] | 304 to 307 | 
O=C1NC(=O)c2c1c1c3cc(Br)ccc3[nH]c1c1cccn21 [Example 7, 11-Bromopyrrolo[3′,4′:5,6]indolizino[8,7-b]indole-1,3(2H,8H)-dione] | > 300 | 
O=C1NC(=O)c2c1c1c3cc(Cl)ccc3[nH]c1c1cccn21 [Example 9, 11-Chloropyrrolo[3′,4′:5,6]indolizino[8,7-b]indole-1,3(2H,8H)-dione] | 298 to 304 | 
O=C1NC(=O)c2c1c1c3ccccc3[nH]c1c1cccn21 [Example 1, Pyrrolo[3′,4′:5,6]indolizino[8,7-b]indole-1,3(2H,8H)dione] | 218 to 220 | IC50 (L1210 murine leukaemia): 3.1 µM; IC50 (DU145 prostate carcinoma): 1400 nM; IC50 [1]: 1990 nM; IC50 [2]: 3.3 µM
CN1C(=O)C2c3c([nH]c4ncccc34)-c3nccn3C2C1=O (stereo not shown) [Example 19, 6-Methyl-7a,12-dihydroimidazo[1,2-a]pyrido[3′,2′:4,5]pyrrolo[2,3-c]-pyrrolo[3,4-e]pyridine-5,7(4aH,6H)-dione] | 222 to 224 | 
